These results are taken from patent publication US4175125A, “Method for treating methicillin resistant staphylococcus aureus” (Eli Lilly and Company, priority 1978, dated 1979).

Each structure is given as a SMILES string. In brackets after ≈: the same amount, converted by molar mass. Structures can show the parent of a compound that is named as a salt. Where two headings read alike, the source gives them in different places.

Broadly, the ED50 is the midpoint of the dose-response relation.

Assay [1] relates to Streptococcus pyogenes, strain C203. The assay is described as follows: Streptococcus pyogenes infection in mice, median effective dose (Example 12). In kind it is in vivo. Here is the method: The compound 7-[2"-(3"-chloro-4"-fluorophenyltio)acetamido]cephalosporanic acid, prepared as described in Example 8, was tested for antibiotic effectiveness against Streptococcus pyogenes, strain C203 infections in mice, and is compared with the effectiveness of cephaloridine in the same test. Experience has shown with other compounds, some of which are now commercial antibiotics, that a compound effective against Streptococcus pyrogenes, strain C203 in this test will be effective against Staphylococcus aureus strains in clinical use. This is intended as further evidence that the compounds of the method of this invention should be effective antibiotics in clinical situations.
In this test, a standard in vivo test method described by Wick, W. E., F. Streightoff, and D. H. Holmes. 1961, in J. Bacteriol., 81: 233-235 was used. The oral and subcutaneous median effective doses (ED50) necessary to cure 50 percent of the mice were calculated according to the method of Reed and Muench (Reed, L. J., and H. Meunch. 1938. Am. J. Hyg. 27: 493-497) The results were as follows: […]

Assay [2] concerns Staphylococcus aureus cultures. Put plainly: Agar dilution MIC, Example 13 compound vs methicillin resistant Staphylococcus aureus. In kind it is cell-based. The following applies: read-out: MIC. From the text: The table which follows gives the minimum inhibitory concentration (MIC) in micrograms of compound per milliliter of culture (μg/ml), in comparison with similar MIC values for the known antibiotics methicillin, cephalothin and cephaloridine against the same strains of bacteria.
(In general: In agar dilution, organisms are placed on agar that contains the substance at set levels.)

Assay [3] has as its system methicillin-resistant Staphylococcus aureus. Put plainly: Gradient plate test (MIC) against methicillin-resistant Staphylococcus aureus. It counts as cell-based. The following applies: Staphylococcus aureus, read-out: minimum inhibitory concentration (MIC). As for the experimental part: The method used is essentially that described by Bryson and Szybalski in 1952 (Science 116:45-46). The inoculum treatment method used for penicillin resistant Staphylococci was reported by Godzeski et al in Antimicrobial Agents and Chemotherapy, May, 1969, pp. 547-554.
A standard Falcon square plastic petri dish is used. A layer of agar (10 ml.) is poured into one of the square dishes, the dish tipped 5 mm. off the horizontal, and the agar layer allowed to harden in this position. This bottom layer of agar contains the antibiotic, the serum, and/or other material to be tested. The medium is Difco Penassay Agar containing 2 percent agar. We routinely used 4 ml. of human or horse serum for "serum-inactivation" testing. […] Therefore, serum is routinely added only to the bottom layer.
After the bottom, slanted layer of agar medium has hardened, the plate is placed flat and another 10 ml. of medium added and allowed to harden.
The inoculum of resistant Staphylococci, as described, is prepared by diluting the water suspension 1/50 in 0.25 percent agar in sterile water or saline. For Gram negative organisms, an overnight broth culture is diluted 1/50 in the 0.25 percent agar-water. This dilution is thoroughly shaken to evenly suspend the bacteria. To streak the plate, we use a 1 ml. pipet containing an aliquot of the final […] agar dilution. After a little practice, a smooth even stroke of inoculum can be laid down very rapidly. The trick is in the smoothness of the streak--it must be accomplished uniformly and quickly.
After 24 hours incubation at 35°-37° C. the plates are read by simply measuring the length of bacterial growth as a percentage of the entire streak distance which is then converted to the percent of antibiotic concentration in the plate.
Average values of duplicate measurements are calculated and the M.I.C.'s reported are average of 2 streaks on the plate and from 2 to 3 duplicate plates. Eight streaks can be easily placed on each plate. If sharp end points are not obtained, the middle concentration between the beginning of inhibition of the streak to the end of growth is measured. The concentration of the antibiotic under examination is varied from plate to plate in a series as follows: […]
This method of screening penicillins and cephalosporins is quite satisfactory. Control plates containing penicillin and staphcillin or prostaphlin, or other control antibiotic, are used daily for the resistant staphylococcal activity screen. The gradient plate method has shown differences between antibiotics that were not apparent by any other methods of screening. […] We believe that the gradient plate screen is more sensitive to small differences between related antibiotics than other methods and pictures of the plates can provide a permanent record. The method also lends itself readily to modification of specific purposes--e.g., cross gradients.
The compounds listed below are examples of compounds useful in the method of this invention. After the compound name there is given in parentheses, where tested, the minimum inhibitory concentrations (MIC) in micrograms per milliliter (μg/ml) for the compound in the above described gradient plate procedure test against methicillin-resistant Staphylococcus aureus, (in the absence of blood serum/in the presence of 20 percent blood serum).
and pharmaceutically acceptable salts thereof. The abbreviation "s.z." means skip zones.

Regarding `O=C(Cc1cccs1)N[C@@H]1C(=O)N2C(C(=O)[O-])=C(C[n+]3ccccc3)CS[C@H]12` [Cephaloridine, cephaloridine, reference compound], the ED50 was 0.323 mg/kg in assay [1] (C203, po) and 0.1 mg/kg in assay [1] (C203, sc). In addition, the MIC was determined as 0.13 µg/mL (≈ 0.313 µM) in assay [2] (culture 3055 (control), Trypticase Soy Agar with 4.5% NaCl added (5% NaCl)); 0.03 µg/mL (≈ 0.0722 µM) in assay [2] (culture 3055 (control), Trypticase Soy Agar, 0.5% NaCl); 1 µg/mL (≈ 2.41 µM) in assay [2] (culture 3130, Trypticase Soy Agar with 4.5% NaCl added (5% NaCl)); 0.5 µg/mL (≈ 1.2 µM) in assay [2] (culture 3130, Trypticase Soy Agar, 0.5% NaCl); 1 µg/mL (≈ 2.41 µM) in assay [2] (culture 3131, Trypticase Soy Agar with 4.5% NaCl added (5% NaCl)); 0.5 µg/mL (≈ 1.2 µM) in assay [2] (culture 3131, Trypticase Soy Agar, 0.5% NaCl). The MIC was 0.5 µg/mL (≈ 1.2 µM) in assay [2] (culture 3132, Trypticase Soy Agar with 4.5% NaCl added (5% NaCl)); 0.25 µg/mL (≈ 0.602 µM) in assay [2] (culture 3132, Trypticase Soy Agar, 0.5% NaCl); 0.25 µg/mL (≈ 0.602 µM) in assay [2] (culture 3133, Trypticase Soy Agar with 4.5% NaCl added (5% NaCl)); 0.13 µg/mL (≈ 0.313 µM) in assay [2] (culture 3133, Trypticase Soy Agar, 0.5% NaCl); 1 µg/mL (≈ 2.41 µM) in assay [2] (culture 3134, Trypticase Soy Agar with 4.5% NaCl added (5% NaCl)); 1 µg/mL (≈ 2.41 µM) in assay [2] (culture 3134, Trypticase Soy Agar, 0.5% NaCl). The MIC worked out at 4 µg/mL (≈ 9.63 µM) in assay [2] (culture 3135, Trypticase Soy Agar with 4.5% NaCl added (5% NaCl)); 0.5 µg/mL (≈ 1.2 µM) in assay [2] (culture 3135, Trypticase Soy Agar, 0.5% NaCl); 4 µg/mL (≈ 9.63 µM) in assay [2] (culture 3136, Trypticase Soy Agar with 4.5% NaCl added (5% NaCl)); 0.13 µg/mL (≈ 0.313 µM) in assay [2] (culture 3136, Trypticase Soy Agar, 0.5% NaCl); 4 µg/mL (≈ 9.63 µM) in assay [2] (culture 3137, Trypticase Soy Agar with 4.5% NaCl added (5% NaCl)); 4 µg/mL (≈ 9.63 µM) in assay [2] (culture 3137, Trypticase Soy Agar, 0.5% NaCl). For the same molecule, the MIC in assay [2] (culture 3138, Trypticase Soy Agar with 4.5% NaCl added (5% NaCl)) worked out at 4 µg/mL (≈ 9.63 µM); in assay [2] (culture 3138, Trypticase Soy Agar, 0.5% NaCl) it was 1 µg/mL (≈ 2.41 µM); in assay [2] (culture 3139, Trypticase Soy Agar with 4.5% NaCl added (5% NaCl)), 0.13 µg/mL (≈ 0.313 µM); in assay [2] (culture 3139, Trypticase Soy Agar, 0.5% NaCl), 0.5 µg/mL (≈ 1.2 µM); in assay [2] (culture H232 (control), Trypticase Soy Agar with 4.5% NaCl added (5% NaCl)), 0.13 µg/mL (≈ 0.313 µM); in assay [2] (culture H232 (control), Trypticase Soy Agar, 0.5% NaCl) it was 0.06 µg/mL (≈ 0.144 µM). In addition, the MIC in assay [2] (culture Havarmak 1136501, Trypticase Soy Agar with 4.5% NaCl added (5% NaCl)) turned out to be 8 µg/mL (≈ 19.3 µM); in assay [2] (culture Havarmak 1136501, Trypticase Soy Agar, 0.5% NaCl) it was 1 µg/mL (≈ 2.41 µM); in assay [2] (culture S 61, Trypticase Soy Agar with 4.5% NaCl added (5% NaCl)), 1 µg/mL (≈ 2.41 µM); in assay [2] (culture S 61, Trypticase Soy Agar, 0.5% NaCl), 1 µg/mL (≈ 2.41 µM); in assay [2] (culture Seattle 966, Trypticase Soy Agar with 4.5% NaCl added (5% NaCl)), 0.13 µg/mL (≈ 0.313 µM); in assay [2] (culture Seattle 966, Trypticase Soy Agar, 0.5% NaCl), 0.5 µg/mL (≈ 1.2 µM).
As to `CC(=O)OCC1=C(C(=O)O)N2C(=O)C(NC(=O)CSc3ccc(F)c(Cl)c3)C2SC1` (stereo not drawn) [Example 8, 7-(3'-chloro-4-fluorophenylthioacetamido)cephalosporanic acid, sodium salt], the MIC came out at 9.3 µg/mL in assay [3] (in the absence of blood serum) and 12.2 µg/mL in assay [3] (in the presence of 20 percent blood serum). The 50% effective dose (ED50) in assay [1] (C203, oral, infecting challenge 27.9 (XLD50), read-out: ED50) is 7 mg/kg; in assay [1] (C203, sc, subcut, infecting challenge 27.9 (XLD50), read-out: ED50), < 0.21 mg/kg.
